Data on six molecules can be found in patent publication US20100140166A1, “PROCESS FOR FERMENTIVE PREPARATION OF ALCOHOLS AND RECOVERY OF PRODUCT” (E.I. DU PONT DE NEMOURS AND COMPANY, priority 2008, published 2010).

Structures are written as SMILES.

Data set [1] relates to Saccharomyces cerevisiae (W1362 20A). The data set can be described thus: Glucose Uptake Index (GUI) of Saccharomyces cerevisiae culture in the presence of ionic liquid. It counts as cell-based. The following applies: 5% (v/v) ionic liquid, YPD medium, 30° C., 16 hours after addition; GUI of control without ionic liquid 79.0 (Ex. 1-5) or 100 (Ex. 6-8).
Data set [2] in a line: Extraction of ethanol from an aqueous solution by ionic liquid (HPLC). It is filed as physicochemical. Conditions: 3 mL aqueous solution about 31 g/L ethanol, 5 vol % ionic liquid, overnight equilibration, control 655.
Description: (§1) Ethanol and isobutanol concentration in the solution was measured using HPLC as described above following thorough mixing and overnight equilibration of the contents of the vial.
Data set [3] is described as follows: Extraction of isobutanol from an aqueous solution by ionic liquid (HPLC). The following applies: 3 mL aqueous solution about 31 g/L isobutanol, 5 vol % ionic liquid, overnight equilibration, control 436. It counts as physicochemical.
Description: as §1

As to `COCC[N+](C)(C)CCN1C(=O)CCC1C` (stereo not shown) [Example 4, 1-(N,N,N-dimethyl(methylethoxy)aminoethyl)-5-methylpyrrolidin-2-one hexafluoropropanesulfonate], the “GUI of Sample (Glucose Utilization Index in the presence of ionic liquid phase)” value in data set [1] was 21.9. Further, in data set [2], the “mM Ethanol (in solution after equilibration)” value (“mM Ethanol” below) was determined as 645 mM. In addition, the “mM isobutanol (in solution after equilibration)” value (shortened to “mM isobutanol”) in data set [3] was 423 mM.
For the molecule `CC1CCC(=O)N1CC[N+](C)(C)CCO.O=S(=O)([N-]S(=O)(=O)C(F)(F)F)C(F)(F)F` (stereo not shown) [Example 8, 1-(N,N,N-dimethyl(hydroxyethyl)aminoethyl)-5-methyl pyrrolidone-2-one bis(trifluoromethane)sulfonamide], in data set [1], the “GUI of Sample (Glucose Utilization Index in the presence of ionic liquid phase)” value is given as 89.3. Also, the “mM isobutanol” value in data set [3] was found to be 417 mM.
For the molecule `CCOCC[N+](C)(C)CCN1C(=O)CCC1C` (stereo not shown) [Example 2, 1-(N,N,N-dimethyl(ethylethoxy)aminoethyl)-5-methyl-pyrrolidine-2-one hexafluoropropanesulfonate], the “GUI of Sample (Glucose Utilization Index in the presence of ionic liquid phase)” value in data set [1] is listed as 34.0. For the same molecule, in data set [2] (listed as [MeDMEEAP] [HFPS]), the “mM Ethanol” value turned out to be 656 mM. In addition, the “mM isobutanol” value in data set [3] (listed as [MeDMEEAP] [HFPS]) is given as 422 mM.
`CCC[N+](C)(C)CCN1C(=O)CCC1C.O=S(=O)([N-]S(=O)(=O)C(F)(F)F)C(F)(F)F` (stereo not shown) [Example 6, 1-(N,N,N-dimethylpropylaminoethyl)-5-methyl pyrrolidone-2-one bis(trifluoromethane)sulfonamide]: the “GUI of Sample (Glucose Utilization Index in the presence of ionic liquid phase)” value in data set [1] was 100. Further, the “mM isobutanol” value in data set [3] was 387 mM.
Regarding `CCOCC[N+](C)(C)CCN1C(=O)CCC1C` (stereo not shown) [Example 3, 1-(N,N,N-dimethyl(ethylethoxy)aminoethyl)-5-methyl-pyrrolidine-2-one bis(trifluoromethane)sulfonamide], in data set [1], the “GUI of Sample (Glucose Utilization Index in the presence of ionic liquid phase)” value was 80.4. The “mM Ethanol” value in data set [2] (listed as [MeDMEEAP] [Tf2N]) came out at 637 mM. In data set [3] (listed as [MeDMEEAP] [Tf2N]), the “mM isobutanol” value stood at 398 mM.
For `COCC[N+](C)(C)CCN1C(=O)CCC1C.O=S(=O)([N-]S(=O)(=O)C(F)(F)F)C(F)(F)F` (stereo not shown) [Example 7, 1-(N,N,N-dimethyl(methylethoxy)aminoethyl)-5-methyl pyrrolidone-2-one bis(trifluoromethane)sulfonamide], the “GUI of Sample (Glucose Utilization Index in the presence of ionic liquid phase)” value in data set [1] stood at 100. The “mM Ethanol” value in data set [2] is recorded as 643 mM. The “mM isobutanol” value in data set [3] worked out at 389 mM.
